Common to all, as to format: physicochemical
Series [1] in a line: Solubility by UV-Visible spectroscopy in aqueous 0.1 M HCl (pH 1) at 22° C. Conditions: for solubility at 24 h: 22 °C, pH 1, simulated gastric fluid, thermodynamic from solid; for solubility: pH 1. As for the experimental part: The solubility of crystalline lercanidipine besylate, napadisylate and hydrochloride and amorphous lercanidipine besylate was evaluated by UV-Visible spectroscopy in aqueous 0.1 M HCl (pH 1) at 22° C. Suspensions of approximately 0.3 mg/ml of the respective compounds were prepared in an aqueous 0.1 M HCl and equilibrated by shaking for 24 hours. Following equilibration, the samples were filtered (0.1 μm filter) and the concentration was determined photometrically using Perkin Elmer Lambda 16 (Überlingen, Germany). Reference measurements were performed with 20% acetonitrile as a co-solvent.

A short description of series [2]: Hygroscopicity by DVS analysis (water absorption analyzer). As to conditions: humidity cycling between 0 and 95% RH at 25° C. As for the experimental part: The hygroscopicity of both amorphous and crystalline lercanidipine salts was determined by DVS analysis using a water absorption analyzer (Surface Measurement System Ltd., Marion, Buckinghamshire, UK). The analysis were carried out according to the following conditions: 10-15 mg of sample were placed on a quartz or platinum holder, the holder was placed in-turn on a microbalance, and the sample underwent humidity cycling between 0 and 95% relative humidity (RH) at 25° C. (50-95-0-95-0-50% at a rate of 5% RH/hr).

A short description of series [3]: Stability of crystalline salts (statement, no method).

The values that follow come from US7683179B2, “Lercanidipine salts” (Recordati Ireland Limited, priority 2004, dated 2010).

“Also recorded” adds a separate entry of the source. Counter-ions that a name gives are not always drawn. Like-named read-outs stand apart in the source and are kept apart here.

A word on the solubility: it is the concentration that dissolves in the medium under given conditions. Read a low solubility as a poorly soluble substance.

For the compound `COC(=O)C1=C(C)NC(C)=C(C(=O)OC(C)(C)CN(C)CCC(c2ccccc2)c2ccccc2)C1c1cccc([N+](=O)[O-])c1` (stereo not shown) [Crystalline hydrochloride, lercanidipine hydrochloride, reference compound], the solubility at 24 h in series [1] (Solubility) is 10 µg/mL; in series [1] (solubility in 0.1 N HCl), roughly 10 µg/mL.

In the case of `COC(=O)C1=C(C)NC(C)=C(C(=O)OC(C)(C)CN(C)CCC(c2ccccc2)c2ccccc2)C1c1cccc([N+](=O)[O-])c1.COC(=O)C1=C(C)NC(C)=C(C(=O)OC(C)(C)CN(C)CCC(c2ccccc2)c2ccccc2)C1c1cccc([N+](=O)[O-])c1.O=S(=O)(O)c1cccc2c(S(=O)(=O)O)cccc12` (stereo not shown) [Crystalline napadisylate, lercanidipine napadisylate], the Hygroscopicity result in series [2] is “hygroscopic”. In series [3], the stability entry is on record as “good stability”. Also, in series [1], the “solubility compared with other salt forms” value is given as “lower solubility than the amorphous salt”, the “solubility in 0.1 M HCl at 22° C.” value was “about 3.5 mg/L” and the solubility was determined as 3.5 µg/mL.

Turning to “lercanidipine besylate [Amorphous besylate]”, in series [2], the Hygroscopicity entry is given as “non-hygroscopic”. The compound also had a solubility in series [1] of 155 µg/mL.

Turning to “lercanidipine besylate [Crystalline besylate]”, in series [2], the Hygroscopicity result is on record as “non-hygroscopic”. Also, in series [3], the stability entry was “good stability”. Further, in series [1] (0.1 M / 0.1 N HCl, comparison in words), the “solubility compared with other salt forms” value was “lower solubility than the amorphous salt; also recorded: substantially more soluble than either crystalline hydrochloride or napadisylate”. Besides, in series [1] (0.1 M HCl, 22° C.), the “solubility in 0.1 M HCl at 22° C.” value is on record as “about 87 mg/L”.
